Results: patent publication US20110059970A1, “4-PHENYL-1,3-THIAZOLES AND 4-PHENYL-1,3-OXAZOLES DERIVATIVES AS CANNABINOID RECEPTOR LIGANDS” (IPSEN PHARMA S.A.S., priority 2007, published 2011)
Counter-ions that a name gives are not always drawn.

Molecular target: T1, human CB2 receptors (Homo sapiens, UniProt P34972)
T1 construct: expressed in transfected cells; membranes prepared from them
Test: Affinity for human CB2 receptors: inhibition of [3H]-CP55940 binding to membranes of transfected CHO-K1 cells
Settings: [3H]-CP55940 (1 nM) competition, CHO-K1 membranes; IC50 converted to Ki by Cheng-Prusoff; read-out: affinity for the CB2 receptor
Description: Study of the Affinity of the Compounds for Human Cannabinoid CB2 Receptors
The affinity of the compounds of the invention for human CB2 receptors was determined by measuring inhibition of [^3H]-CP55940 binding to membrane preparations produced from transfected CHO-K1 cells.
CHO-K1 cells stably expressing human CB2 receptors were cultured in RPMI 1640 medium supplemented with 10% foetal calf serum, 2 mM glutamine, 100 U/ml penicillin, 0.1 mg/ml streptomycin and 0.5 mg/ml G418. The cells were collected using 0.5 mM EDTA and centrifuged at 500 g for 5 min at 4° C. The cell pellet was resuspended in phosphate buffered saline (PBS) and centrifuged at 500 g for 5 min at 4° C. The pellet was resuspended in 50 mM tris buffer pH 7.4 and centrifuged at 500 g for 5 min at 4° C. The cells were lysed by sonication and centrifuged at 39,000 g for 10 min at 4° C. The pellet was resuspended in 50 mM tris buffer pH 7.4 and centrifuged at 50,000 g for 10 min at 4° C. The membranes obtained in this final pellet were stored at −80° C.
Competitive inhibition of the binding of [^3H]-CP55940 to CB2 receptors was determined in duplicate in 96-well polypropylene plates. Cell membranes (10 μg of protein/well) were incubated with [^3H]-CP55940 (1 nM) for 60 min at 25° C. in 50 mM Tris-HCl buffer, pH 7.4, containing 0.1% bovine serum albumin (BSA), 5 mM MgCl2, and 50 μg/ml of bacitracin.
Bound [^3H]-CP55940 was separated from free [^3H]-CP55940 by filtration through GF/C fibre glass filter plates (Unifilter, Packard) pre-impregnated with 0.1% polyethylenimine (P.E.I.), using a Filtermate 196 (Packard). The filters were washed with 50 mM Tris-HCl buffer, pH 7.4 at 0-4° C. and the radioactivity present was determined using a counter (Packard Top Count).
Specific binding was obtained by subtracting non-specific binding (determined in the presence of 0.1 μM WIN55212-2) from total binding. The data were analysed by computer-assisted nonlinear regression (MDL). For each test, the IC50 value was converted to a Ki value (inhibition constant) using the Cheng-Prusoff equation.
where [L] is the concentration of the radioligand used in the assay and Kd is the dissociation constant of the radioligand at equilibrium.

T1 sequence (P34972 whole entry): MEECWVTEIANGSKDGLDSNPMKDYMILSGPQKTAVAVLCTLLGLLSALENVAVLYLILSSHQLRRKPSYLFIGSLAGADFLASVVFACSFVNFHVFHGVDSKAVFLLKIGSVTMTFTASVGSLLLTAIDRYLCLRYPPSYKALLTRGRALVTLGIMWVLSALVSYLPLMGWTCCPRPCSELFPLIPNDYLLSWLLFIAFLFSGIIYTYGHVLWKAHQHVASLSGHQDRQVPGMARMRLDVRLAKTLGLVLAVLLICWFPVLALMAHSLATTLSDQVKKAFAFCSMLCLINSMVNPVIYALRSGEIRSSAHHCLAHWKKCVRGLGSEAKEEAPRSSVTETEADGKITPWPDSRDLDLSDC

| SMILES | Ki |
| --- | --- |
| CC(C)(C)c1cc(-c2csc(C3(N)CCSCC3)n2)cc(C(C)(C)C)c1O [Example 5, 4-[2-(4-aminotetrahydro-2H-thiopyran-4-yl)-1,3-thiazol-4-yl]-2,6-di-tert-butylphenol] | 500 to 1000 nM |

Test system: not given
Test: not given
Settings: not given

| SMILES | melting point |
| --- | --- |
| COc1c(Cl)cc(-c2csc(C3(N(C)C)CCOCC3)n2)cc1C(C)(C)C (as salt: hydrochloride) [Example 13, {4-[4-(3-tert-butyl-5-chloro-4-methoxyphenyl)-1,3-thiazol-2-yl]tetrahydro-2H-pyran-4-yl}dimethylamine hydrochloride] | 219.7 to 222.2 °C |
| COc1ccc(-c2csc(C3(N(C)C)CCOCC3)n2)cc1C(C)(C)C (as salt: hydrochloride) [Example 14, {4-[4-(3-tert-butyl-4-methoxyphenyl)-1,3-thiazol-2-yl]tetrahydro-2H-pyran-4-yl}dimethylamine hydrochloride] | 232.7 to 233.5 °C |
| CN(C)C1(c2nc(-c3ccc(Oc4ccccc4)cc3)cs2)CCOCC1 (as salt: hydrochloride) [Example 16, N,N-dimethyl-4-[4-(4-phenoxyphenyl)-1,3-thiazol-2-yl]tetrahydro-2H-pyran-4-amine hydrochloride] | 213 to 223.2 °C |
| CN1CCC(c2nc(-c3cc(C(C)(C)C)c(O)c(C(C)(C)C)c3)cs2)(N(C)C)CC1 (as salt: hydrochloride) [Example 23, 2,6-di-tert-butyl-4-{2-[4-(dimethylamino)-1-methylpiperidin-4-yl]-1,3-thiazol-4-yl}phenol hydrochloride] | 236 to 238 °C |
| CN(C)C1(c2nc(-c3ccc(Cc4ccccc4)cc3)cs2)CCOCC1 (as salt: hydrochloride) [Example 29, {4-[4-(4-benzylphenyl)-1,3-thiazol-2-yl]tetrahydro-2H-pyran-4-yl}dimethylamine hydrochloride] | 228.4 to 229.5 °C |
| CN(C)C1(c2nc(-c3ccc(Oc4ccc([N+](=O)[O-])cc4)cc3)cs2)CCOCC1 (as salt: hydrochloride) [Example 32, N,N-dimethyl-4-{4-[4-(4-nitrophenoxy)phenyl]-1,3-thiazol-2-yl}tetrahydro-2H-pyran-4-amine hydrochloride] | 167 to 169 °C |
| CN(C)C1(c2nc(-c3ccc(Sc4ccccc4)cc3)cs2)CCOCC1 (as salt: hydrochloride) [Example 33, N,N-dimethyl-4-{4-[4-(phenylthio)phenyl]-1,3-thiazol-2-yl}tetrahydro-2H-pyran-4-amine hydrochloride] | 215 to 218.8 °C |
| COc1c(C(C)(C)C)cc(-c2csc(C3(N)CCOCC3)n2)cc1C(C)(C)C [Example 1, {4-[4-(3,5-di-tert-butyl-4-methoxyphenyl)-1,3-thiazol-2-yl]tetrahydro-2H-pyran-4-yl}amine] | 128.4 to 129.7 °C |
| CC(C)(C)c1cc(-c2csc(C3(N)CCSCC3)n2)cc(C(C)(C)C)c1O [Example 5, 4-[2-(4-aminotetrahydro-2H-thiopyran-4-yl)-1,3-thiazol-4-yl]-2,6-di-tert-butylphenol] | 148.8 to 150.8 °C |
| CC(C)(C)c1cc(-c2csc(C3(N)CCOCC3)n2)cc(C(C)(C)C)c1 [Example 10, {4-[4-(3,5-di-tert-butylphenyl)-1,3-thiazol-2-yl]tetrahydro-2H-pyran-4-yl}amine] | 114 to 114.4 °C |
